The test system of one data set is IL-17A. Nature of the data set: CD4+ T cell IL17 assay. The settings on record: for IC50: T-cell. Format: cell-based, human. As to the method:
Therefore, compounds are evaluated for their ability to reduce IL-17 production from CD4+ T cells stimulated under Th17-skewing conditions. Cryopreserved human CD4^+ T cells (AllCells, LLC, Alameda, CA and Stemcell Technologies, Inc. Vancouver, Canada) were differentiated to the Th17 subtype by culturing for 5 days in CD3-coated tissue culture plates (2 μg/mL) in Iscove's modified Dulbecco's medium (IMDM) containing 10% HI-FBS, 55 μM 2-mercaptoethanol and soluble anti-CD28 (3 μg/mL) in the presence of a Th17 skewing cocktail, [IL-1β (10 ng/mL), IL-6 (30 ng/mL), TGFβ (0.5 ng/mL), IL-21 (10 ng/mL), IL-23 (10 ng/mL), anti-IFNγ (10 μg/mL) and anti-IL-4 (10 μg/mL)] in the presence or absence of serially diluted compounds. Secretion of IL-17 from polarized CD4+ T-cells was measured in the culture media using an MSD (Meso Scale Discovery) detection system following 5 day exposure toTh17 polarization reagents with and without compounds.

Data set [1] deals with imiquimod (IMQ)-treated mouse. Nature of the data set: IMQ mouse model of psoriasis. Format: in vivo. To be noted: for IL-17% effect vs. IMQ + SEM / IL-17F %effect vs IMQ + SEM: tissue mRNA. The procedure:
Female BALB/c mice (BALB/cByJRj) were purchased from Janvier (France). Mice are allowed to eat a normal diet AO4C from SAFE (France) and drink ad libitum. BALB/c JByRj female mice (8 week-old at study initiation) are treated with imiquimod (IMQ) cream (5%) or vanicream (non-inflammatory inert cream). For three days of pre-treatment, and then daily until the end of the study (two hours before each application of IMQ), the same skin area is treated topically with 100 μL of compound. Mice are monitored for changes in clinical symptoms over the course of the study. Affected back skin is examined by histology and qPCR for evidence of compound efficacy.
Starting 3 days after first treatment, IMQ cream was applied daily for 4 (StudyA) or 10 days (Study B). Clinical scoring was monitored daily (FIG. 5A, FIG. 5B). At the end of the study, treated skin was evaluated by histology and qPCR for induced cytokine gene expression.
On days 0, 1, 2, 3: visual evaluation of the skin and psoriasis clinical scorewere noted.
Psoriasis reactions (erythema and plaques) are reported according to a 0-4 scale in ascending order of severity as shown below and results are shown in FIG. 5A1.
On the last day of treatment, a 6 mm punch of skin in the treated area is collected on a aluminium sheet (to keep the skin flattened) and placed into a tube containing Formalin solution (Neutral Buffered 10% (SIGMA HT501320-9 5L)) for histological analysis (FIG. 5A2).
On days 0, 1, 2, 3, 4, 5, 6, 7,8, 9: visual evaluation of the skin and psoriasis clinical score were noted.
Psoriasis reactions (erythema and plaques) are reported according to a 0-4 scale in ascending order of severity as shown below and results are shown in FIG. 5B1.
On the last day of treatment, a 6 mm punch of skin in the treated area is collected on a aluminium sheet (to keep the skin flattened) and placed into a tube containing Formalin solution (Neutral Buffered 10% (SIGMA HT501320-9 5L)) for histological analysis (FIG. 5B2).

Data set [2] in a line: plasma protein binding by Rapid Equilibrium Dialysis, rat. The settings on record: rat, plasma. Format: in vitro ADME. An excerpt: (§1) The blood-to-plasma ratios were similar across species (1.22-1.36, Table 9).
Background: In equilibrium dialysis free small molecules cross a membrane that holds back macromolecules.

The next data set deals with Rat Plasma Proteins. The data set is described as above. Format: in vitro ADME.
Description: as §1

Data set [3] in a line: blood-to-plasma ratio and blood cell association, minipig. Format: in vitro ADME.
Data set [4] can be described thus: bioavailability after a single oral dose, minipig. The format is in vivo. The settings on record: plasma, single 5 mg/kg oral dose, DMSO: Kolliphore HS15: hydroxypropyl-β-cyclodextrin (10:10:80). An excerpt: Bioavailability was 46.5% and 41.0% for 30% Captisol and 30% Cavitron, respectively. 30% Captisol formulation was selected for the 7-day subcutaneous toxicity study in rat.

Values joined by “and” are separate entries in the source; they are usually repeats but may differ in a detail not shown here. Identical values can stand only once. “Also recorded” adds a separate entry of the source. Like-named read-outs stand apart in the source and are kept apart here.

On to `CC(C)c1c(O)cc(-c2cc3ccccc3cn2)cc1O`, for which the IC50 in the data set on IL-17A (MSD-based readout of secreted IL-17A from Th17-polarized primary human CD4+ peripheral blood T cells, read-out: IL-17A pIC50 (converted)) was 3.98 nM. In addition, the IC50 in the data set with IL-17A (primary human peripheral blood CD4+ T-cells, read-out: IL-17A inhibition IC50) is 140 nM. Besides, the IL-17A production entry in the data set with IL-17A (Th17-skewing conditions, applied throughout culture) is “suppression of IL-17A; also recorded: reduces IL-17A production in a dose-dependent manner”. In data set [1] (Study A, 0.3% + IMQ), the “IL-17% effect vs. IMQ + SEM” value was 16.27 + 4.816% and the “IL-17F %effect vs IMQ + SEM” value was 22.21 + 7.418%. For the same compound, in data set [1] (Study B, 0.1% + IMQ), the “IL-17% effect vs. IMQ + SEM” value is on record as 78.48 + 18.771% and the “IL-17F %effect vs IMQ + SEM” value is 45.23 + 9.519%. In addition, in data set [1] (Study B, 0.3% + IMQ), the “IL-17% effect vs. IMQ + SEM” value is listed as 79.33 + 22.900% and the “IL-17F %effect vs IMQ + SEM” value is recorded as 60.01 + 12.229%. In data set [1] (daily topical, 60% EtOH: 40% H2O solution, vs vehicle-treated mice), the clinical score entry was “reduced clinical score”. For the same compound, in data set [1] (topical, qPCR), the “skin cytokine gene expression (IL-17A, IL-17F)” value is “significantly inhibited; also recorded: reduced cytokine gene expression”. In addition, the “epidermis thickening induced by imiquimod” value in data set [1] (topical, skin histology) is given as “reduce the epidermis thickening; also recorded: reduced epidermal thickening”. Moreover, in data set [2] (read-out: % Unbound Mean (% CV)), the fraction unbound at 4 h, 2 μM was found to be 0.0306. Also, the fraction unbound at 4 h, 2 μM in data set [2] (read-out: Mean % Bound (converted)) is 0.031. This compound yielded a recovery at 4 h, 2 μM in the data set with Rat Plasma Proteins of 104%. In the data set with Rat Plasma Proteins (2 μM), the “% Unbound Replicate” value is 1.37% and 1.44% and 6.36%; the “Mean % Stability at 4 hrs” value amounted to 94.4%. Moreover, in data set [3] (1 μM), the “% Blood Cell Association Mean (% CV)” value is listed as 55.6 (2.02) %; the “% Blood Cell Association Replicate” value is 55.3% and 56.8% and 54.5%; the “Blood-to-plasma Ratio Replicate” value is 1.25 and 1.19; the “Mean % Blood Stability” value came out at 105%. Moreover, the blood plasma ratio at 1 μM in data set [3] (read-out: Blood-to-plasma Ratio Mean (% CV)) came out at 1.22. For the same compound, in data set [3] (read-out: Blood-to-plasma Ratio Replicate), the blood plasma ratio at 1 μM was 1.21. Further, in data set [4], the bioavailability was found to be 0.1%.

In general, bioavailability refers to dose-corrected exposure relative to a reference, in per cent. Lower therefore signals little systemic uptake.

The values above are taken from patent publication US20220017468A1, “ISOQUINOLINE COMPOUNDS AND THEIR USE IN TREATING AhR IMBALANCE” (Dermavant Sciences GmbH, priority 2020, published 2022).
